In patent US20260287592A1, “ANALYSIS METHOD AND ANALYSIS SYSTEM” (priority 2023, published 2026):

Tested on: HER3
Conditions: Type3: SN-38 0.01 μM, gefitinib 0.00 μM; SKBR-3 cells, 24 hours; anti-HER3 staining

For CCc1c2c(nc3ccc(O)cc13)-c1cc3c(c(=O)n1C2)COC(=O)[C@]3(O)CC [SN-38, 7-ethyl-10-hydroxycamptothecin], the “AVERAGE VALUE OF 10 WELLS FOR NUMBER OF BRIGHT SPOTS PER CELL” value was 12.
